Laboratory results taken from US20060257340A1, “Formulation for skin-lightening agents” (priority 2003, published 2006).
Entries after “also recorded” stand apart in the source; their conditions may differ. Marks after values point to notes of the source that are not given here.

How the values were obtained:
[1] = system: skin pigmentation of Yucatan swine; experiment: Depigmenting effect of topical application on dark-skinned Yucatan swine (pigment grade); format: in vivo; conditions: for Mean pigment Grade +/− SD (Week 12): topical 20 μl twice daily, five days per week; for Mean pigment Grade +/− SD (Week 12) / mean pigment grade +/− SD: scale 0 to 4, 4 = normal skin color; for mean pigment grade +/− SD: collated experiments; for effect of HG/PG/DMI/EtOH vehicle on depigmenting action: HG/PG/DMI/EtOH with or without 2% (wt/wt) IPM, compared with PG/EtOH
Protocol: The following nonlimiting examples further illustrate certain preferred embodiments of the present invention. The formulations were tested experimentally on Yucatan swine with dark skin. The Yucatan pigskin shares many physiologic and morphologic characteristics with human skin. For example, as described in U.S. Pat. No. 5,470,567, the thickness and general morphology of epidermis and dermis, tritiated thymidine labeling pattern and index of epidermal cells, epidermal cell turnover time, as well as size, orientation, and distribution of vessels in skin are similar to that in humans. Varying concentrations of 4-cyclopentylresorcinol and 4-cyclohexylresorcinol were administered to the back of Yucatan swine using various carriers. Yucatan swine with dark skin were used in this study. Swine were obtained from Charles River Laboratories, Windham, Me., and Sinclair Laboratories, MO. Seven sites measuring approximately 3 cm×3 cm were marked on each side of the animal's spine, between the shoulder blade and hipbone. The sites were far enough apart so that there was no cross-over. Multiple treatments were performed on the back of each animal. Each animal in the experiment received the same treatments. Each spot was topically treated with 20 μl of test solution applied twice daily, five days per week. This amounts to the same dose of active agent. Solutions were administered by pipetting the exact volume to the designated area with a micropipette and then spreading the solution. Each spot or test site on the animal's skin was graded 3 times a week on a scale of 0 to 4 for pigment change, erythema and scaling. Treatments were continued until pigmentation was reduced to a grade 1 level (marked uniform decrease in pigmentation) or for up to 12 weeks. Results were analyzed using different types of statistical analysis, ANOVA, Kruskal-Wallis test and Dunnett's multiple comparison, as indicated below. ANOVA is a statistical test that assumes sampled data is from populations that follow a Gaussian bell-shaped distribution and which works well, especially with large numbers, even if the distribution is only approximately Gaussian. The Kruskal-Wallis test is a nonparametric test that compares three or more unpaired groups. The Dunnett's test is a procedure for comparing each experimental mean with the control mean. For each graph presented, it is indicated which statistical tests were performed.

Yucatan swine skin = conditions: in vivo
Protocol: Seven sites measuring approximately 3 cm×3 cm were marked on each side of the animal's spine, between the shoulder blade and hipbone. The sites were far enough apart so that there was no cross-over. Multiple treatments were performed on the back of each animal. Each animal in the experiment received the same treatments. Each spot was topically treated with 20 μl of test solution applied twice daily, five days per week. This amounts to the same dose of active agent. Solutions were administered by pipetting the exact volume to the designated area with a micropipette and then spreading the solution. Each spot or test site on the animal's skin was graded 3 times a week on a scale of 0 to 4 for pigment change, erythema and scaling. Treatments were continued until pigmentation was reduced to a grade 1 level (marked uniform decrease in pigmentation) or for up to 12 weeks.

[2] = system: skin pigmentation of Yucatan swine; experiment: Reversibility of depigmentation (repigmentation) after treatment discontinuation; format: in vivo; conditions: 6 weeks after discontinuation following 12 weeks of topical treatment; 1% 4-cyclopentylresorcinol, 2% 4-cyclohexylresorcinol in HG/DMI/PG/EtOH (5/15/40/40)
Protocol: Each spot was topically treated with 20 μl of test solution applied twice daily, five days per week. This amounts to the same dose of active agent. Solutions were administered by pipetting the exact volume to the designated area with a micropipette and then spreading the solution. Each spot or test site on the animal's skin was graded 3 times a week on a scale of 0 to 4 for pigment change, erythema and scaling. Treatments were continued until pigmentation was reduced to a grade 1 level (marked uniform decrease in pigmentation) or for up to 12 weeks. Pigmentation was monitored for 6 weeks after discontinuation of treatment following 12 weeks of topical treatment with 1% 4-cyclopentylresorcinol and 2% 4-cyclohexylresorcinol in HG/DMI/PG/EtOH (5/15/40/40).

[3] = 2% in HG/PG/DMI/EtOH (5/40/15/40)

Structure (SMILES)	pigmentation versus the same agent in PG/EtOH vehicle ([1]; 1% and 2% in HG/PG/DMI/EtOH compared with PG/EtOH)	pigmentation versus vehicle control ([1]; 1% and 2% in HG/PG/DMI/EtOH, Kruskal-Wallis test and Dunnett's multiple comparison)	Mean pigment Grade +/− SD (Week 12) ([1]; 1% in DMI/HG/PG/EtOH, 0 = complete depigmentation)	mean pigment grade +/− SD ([1]; 1% in HG/PG/DMI/EtOH (5/40/15/40))	mean pigment grade +/− SD ([1]; 1% in HG/PG/DMI/EtOH + 2% IPM)	mean pigment grade +/− SD ([1]; 1% in PG/EtOH (3/7), 0 = complete depigmentation)	mean pigment grade +/− SD [1, 3]	mean pigment grade +/− SD ([1]; 2% in HG/PG/DMI/EtOH + 2% IPM)	mean pigment grade +/− SD ([1]; 2% in PG/EtOH (3/7))	effect of HG/PG/DMI/EtOH vehicle on depigmenting action [1]	irritation (Yucatan swine skin)	repigmentation after discontinuation of treatment [2]	Mean pigment Grade +/− SD (Week 12) ([1]; 2% in DMI/HG/PG/EtOH, 0 = complete depigmentation)	mean pigment grade +/− SD ([1]; 5% in PG/EtOH (5/5))
Oc1ccc(C2CCCC2)c(O)c1 [4-cyclopentylresorcinol]	not statistically different	statistically different from vehicle	2.8 +/− 0.4*	2.8 +/−0.6*	2.0 +/− 1.2*	3.3 +/− 0.7	2.0 +/− 0.7*	1.4 +/− 0.9*	2.4 +/− 0.9*	improved the depigmentation efficacy	No irritation was apparent	signs of gradual repigmentation	–	–
Oc1ccc(C2CCCCC2)c(O)c1 [4-cyclohexylresorcinol]	–	–	–	–	–	–	2.8 +/− 0.6*	2.4 +/− 1.1*	3.0 +/− 0.8	improved the depigmenting action; also recorded: improved the depigmentation efficacy	No irritation was apparent	signs of gradual repigmentation	3 +/− 0*	3.0 +/− 0*
